The compounds below were run against Amyloid-beta precursor protein (Homo sapiens, UniProt P05067) (assay: Inhibition of human amyloid beta (1 to 40) assessed as reduction in aggregation measured after 24 hrs by ThT fluorescence assay).
Sequence of Amyloid-beta precursor protein (P05067 whole entry): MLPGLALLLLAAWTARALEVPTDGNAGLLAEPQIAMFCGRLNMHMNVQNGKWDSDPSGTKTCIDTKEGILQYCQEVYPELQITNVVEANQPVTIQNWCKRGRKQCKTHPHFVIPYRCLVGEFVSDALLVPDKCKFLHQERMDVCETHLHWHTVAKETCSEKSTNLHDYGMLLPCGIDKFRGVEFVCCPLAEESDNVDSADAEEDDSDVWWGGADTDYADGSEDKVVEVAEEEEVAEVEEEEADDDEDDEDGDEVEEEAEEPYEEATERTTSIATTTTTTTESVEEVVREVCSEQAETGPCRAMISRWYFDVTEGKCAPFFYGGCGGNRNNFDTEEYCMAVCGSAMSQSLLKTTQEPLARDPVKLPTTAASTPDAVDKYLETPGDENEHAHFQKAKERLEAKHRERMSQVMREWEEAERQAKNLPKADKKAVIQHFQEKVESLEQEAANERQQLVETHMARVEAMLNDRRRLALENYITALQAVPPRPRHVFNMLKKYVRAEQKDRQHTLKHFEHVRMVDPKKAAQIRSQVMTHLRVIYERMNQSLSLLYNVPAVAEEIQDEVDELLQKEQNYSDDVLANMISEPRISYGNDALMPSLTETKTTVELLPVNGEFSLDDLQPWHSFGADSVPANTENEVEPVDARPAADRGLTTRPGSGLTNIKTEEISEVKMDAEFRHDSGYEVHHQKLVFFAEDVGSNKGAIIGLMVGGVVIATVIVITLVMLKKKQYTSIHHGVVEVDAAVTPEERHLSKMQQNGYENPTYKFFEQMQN

IC50	SMILES
4.9 µM	COc1ccc(-c2cc(=O)c3c(O)cc(O)c(-c4cc(-c5cc(O)c6c(=O)cc(O)cc-6o5)ccc4O)c3o2)cc1 [4'''-methylamentoflavone]
> 50 µM	COc1ccc(-c2cc(O)c3c(=O)cc(O)cc-3o2)cc1-c1c(OC)cc(O)c2c(=O)cc(-c3ccc(O)cc3)oc12 [4',7''-di-O-methyl-amentoflavone]
> 50 µM	COc1ccc(-c2cc(=O)c3c(O)cc(OC)c(-c4cc(-c5cc(O)c6c(=O)cc(OC)cc-6o5)ccc4OC)c3o2)cc1 [7,4',7'',4'''-O-methyl-amentoflavone]
> 50 µM	COc1cc2oc(-c3ccc(OC)c(-c4c(OC)cc(O)c5c(=O)cc(-c6ccc(O)cc6)oc45)c3)cc(O)c-2c(=O)c1 [7-O-methyl-isoginkgetin]
> 50 µM	COc1ccc(-c2cc(=O)c3c(O)cc(OC)c(-c4cc(-c5cc(O)c6c(=O)cc(OC)cc-6o5)ccc4O)c3o2)cc1 [heveaflavone]
> 50 µM	COc1ccc(-c2cc(=O)c3c(O)cc(OC)c(-c4cc(-c5cc(O)c6c(=O)cc(O)cc-6o5)ccc4OC)c3o2)cc1 [kayaflavone]
> 50 µM	COc1ccc(-c2cc(=O)c3c(O)cc(O)c(-c4cc(-c5cc(O)c6c(=O)cc(OC)cc-6o5)ccc4OC)c3o2)cc1 [sciadopitisin]
4.9 µM	COc1cc2oc(-c3ccc(O)c(-c4c(O)cc(O)c5c(=O)cc(-c6ccc(O)cc6)oc45)c3)cc(O)c-2c(=O)c1 [sequoiaflavone]
> 50 µM	COc1cc(O)c2c(=O)cc(-c3ccc(O)cc3)oc2c1-c1cc(-c2cc(O)c3c(=O)cc(O)cc-3o2)ccc1O [sotetsuflavone]

— BindingDB's records for doi:10.1016/j.bmcl.2019.05.020 (Meiji Pharmaceutical University, 2019)
